Read-outs that look alike come from different tables or passages of the source. Some results are limits rather than exact numbers.

Experiment [1] deals with Enterococcus faecalis ATCC 10741. Nature of the experiment: Antimicrobial microdilution assay, E. faecalis. The experiment is classed as cell-based. As to the method:
(§1) Compounds isolated from P. elisabethae were tested against a panel of microorganisms including the bacteria Staphylococcus aureus ATCC 375, Enterococcus faecalis ATCC 10741, Pseudomonas aeruginosa ATCC 14210 and the yeast Candida albicans ATCC 14035. Bacterial strains were cultured in Luria-Bertani Broth (LB) and C. albicans was cultured in Sabouraud dextrose broth (SD), for 18 h at 37 °C and 220 rpm in a humidified incubator.
(§2) The antimicrobial activity was determined by a microdilution method (IC50) in 96-well microtiter plates using LB media for bacteria and SD media for the yeast seeded liquid media. In all cases, a pre-inoculated dilution was made with fresh broth. A volume of 180 μL of each microorganism suspension was inoculated in each well (10^5 cells/mL) and mixed with 20 μL of treatment solutions. Stock solutions were prepared by dissolving pure compounds and controls in 20% DMSO and storing at 4 °C. Penicillin G (S. aureus), vancomycin (E. faecalis), gentamicin (P. aeruginosa) and nystatin (C. albicans) were used as positive controls and vehicle (DMSO + media) as blank. The final DMSO concentration used for dissolving the extracts was less than 20%. Controls and test compounds (PsG, PsP, PsQ, PsS, PsT, PsU, 3-O-Ac-PsU, seco-PsJ, seco-PsK and IMNGD) were assayed in duplicate for each of the following concentrations: 64.0, 32.0, 16.0, 4.0, 1.0, 0.25 and 0.06 μg/mL.
(§3) Microplates were incubated for 24 h at 37 °C and optical density was recorded using a BioTek Synergy HT microplate reader to measure the absorbance at 600 nm. For each experiment, correction for background absorbance was made by subtracting the value for OD600 after the compounds were added (time 0 h). Percentages of microorganism survival relative to vehicle control wells (wells containing only microorganism and DMSO) were calculated. The IC50 of the controls were also determined in parallel experiments in order to control for the sensitivity of the standard test organisms.
(§4) Data were normalized and analyzed using non-linear regression to elucidate IC50 values from sigmoidal dose-response curves. Comparison between cell lines and microorganisms used extra sum-of-squares F test to evaluate IC50 between data sets. P < 0.05 was considered as indicative of significance using GraphPad Software, Prism V. 5.0.

Experiment [2] concerns PC-3 (prostate cancer). Nature of the experiment: MTT cytotoxic assay, PC-3. The experiment is classed as cell-based. The conditions noted are these: Homo sapiens, PC-3, 48 h. As to the method: (§5) The cell lines HeLa (cervical cancer), PC-3 (prostate cancer), HCT116 (colorectal cancer), MCF-7 (breast cancer) and normal human cell line BJ (skin fibroblasts) were used and maintained in DMEM with 5% of FBS and gentamicin 50 μg/mL. Cultures were held in 75 cm^2 culture flasks at 37 °C, 5% CO2 and 100% relative humidity, changing media at least twice a week.
(§6) Cells were harvested, counted, and transferred into 96 well plates and incubated for 24 h prior to the addition of the test compounds. Test sample solutions (10 μL) at the desired dilutions were added to the wells containing the cells and incubated for 48 h. Microtitration colorimetric method of MTT reduction was used to determine surviving cells at the end of the treatment period.
(§7) A solution of MTT (0.5 mg/mL) was prepared in PBS and 100 μL of this solution was added to each well after the removal of 100 μL of treatment solution. The plates were incubated at 37 °C for 4 h. The solution in each well, containing media, unmetabolized MTT, and dead cells, was removed by suction and 100 μL of DMSO was added to each well. The DMSO was mixed by pipetting and optical density was recorded using a BioTek Synergy HT microplate reader to measure the absorbance at 570 nm. Percentages of cell survival relative to vehicle control wells (wells containing only cells and DMSO) were calculated.
(§8) Stock solutions (5 mg/mL) were prepared by dissolving pure compounds in DMSO and storing at 4 °C. Serial dilutions with culture media were prepared just prior to addition to test plates. The concentration of DMSO in wells was consistent across dilutions at 0.38% v/v. Staurosporine was used as the positive control and vehicle (DMSO + media) as blank. Control and test compounds (PsG, PsP, PsQ, PsS, PsT, PsU, 3-O-Ac-PsU, seco-PsJ, seco-PsK and IMNGD) were assayed in duplicate for each concentration and replicated for each cell line at concentrations of 5000, 1000, 500, 100, 50, 10, 5 and 1 nM for staurosporine and 0.1, 0.5, 1.0, 2.5, 5.0, 7.5, 10.0, and 20.0 μg/mL for compounds.
as §4
On the technique in general: Formazan colour is commonly taken as a measure of viable cells.

Experiment [3] has as its system Staphylococcus aureus ATCC 375. Nature of the experiment: Antimicrobial microdilution assay, S. aureus. The experiment is classed as cell-based. The conditions noted are these: ATCC375, 24 h. As to the method: as §1, §2, §3, §4
(In general: In broth dilution the organism is exposed to a series of concentrations in liquid medium.)

The subject of experiment [4] is HCT116 (colorectal cancer). Nature of the experiment: MTT cytotoxic assay, HCT116. The conditions noted are these: Homo sapiens, HCT-116, HCT116, 48 h. The class given is cell-based. On the procedure:
as §5, §6, §7, §8, §4

For experiment [5], the system named is MCF-7 (breast cancer). Nature of the experiment: MTT cytotoxic assay, MCF-7. The class given is cell-based. The note with it: Homo sapiens, MCF7, 48 h. As to the method: as §5, §6, §7, §8, §4
For experiment [6], the system named is BJ (skin fibroblasts). Nature of the experiment: MTT cytotoxic assay, normal BJ cells. The experiment is classed as cell-based, human. The note with it: 48 h. On the procedure:
as §5, §6, §7, §8, §4

In experiment [7] the test system is HeLa (cervical cancer). Nature of the experiment: MTT cytotoxic assay, HeLa. The conditions noted are these: Homo sapiens, 48 h. The class given is cell-based. On the procedure: as §5, §6, §7, §8, §4
Where [8] appears, read: Enterococcus faecalis, ATCC10741, E. faecalis, microdilution, 24 h, read-out: IC50 ± S.E.

Broadly, the IC50 is the concentration needed to halve the response being measured. Broadly, the GI50 is the concentration at which growth is held to half of that of the control. `CC(C)=CCC[C@H](C)[C@H]1CC[C@H](C)c2c1cc(C)c(O[C@@H]1OC[C@@H](O)[C@@H](O)[C@@H]1O)c2O` [seco-PsJ]: the IC50 in experiment [1] (setting [8]) worked out at 4.08 ± 0.19 µM; in experiment [3], 6.52 ± 0.12 µM. Further, the GI50 in experiment [2] was 37.2 ± 0.41 µM; in experiment [4], 31.7 ± 0.32 µM; in experiment [5], 28 ± 0.51 µM; in experiment [6], 15 ± 0.35 µM; in experiment [6] (Homo sapiens, Skin fibroblast) it was more than 10 µM; in experiment [7] it was 21.1 ± 0.37 µM.
Consider `CC(=O)OC1COC(Oc2c(C)c3c4c(c2O)C(C)CCC4C(C)CC3C=C(C)C)C(O)C1O` (centres unmarked) [PsU], for which the IC50 in experiment [1] (setting [8]) amounted to 3.19 ± 0.25 µM; in experiment [3] it was 2.97 ± 0.17 µM. In addition, the GI50 in experiment [2] was 24.8 ± 0.34 µM; in experiment [4], 23.4 ± 0.4 µM; in experiment [5], 26.5 ± 0.46 µM; in experiment [6] (Homo sapiens, Skin fibroblast), 9.35 ± 0.34 µM; in experiment [7], 15.6 ± 0.32 µM.
Take `CC(=O)O[C@@H]1[C@H](Oc2c(C)c3c4c(c2O)[C@@H](C)CC[C@@H]4[C@@H](C)C[C@H]3C=C(C)C)O[C@@H](C)[C@@H](O)[C@H]1O` [PsS]: the values for the IC50 in experiment [1] (setting [8]) and in experiment [3] were 20.2 ± 0.25 µM and 3.89 ± 0.23 µM, respectively. Further, the GI50 is 52.05 ± 0.31 µM in experiment [2], 33.5 ± 0.33 µM in experiment [4], 26.2 ± 0.45 µM in experiment [5] and 13.8 ± 0.39 µM in experiment [7].
Regarding `CC(C)=C[C@@H]1C[C@H](C)[C@H]2CC[C@H](C)c3c(O)c(O[C@@H]4OC[C@@H](O)[C@@H](O)[C@@H]4O)c(C)c1c32` [PsT], the IC50 came out at 4.38 ± 0.16 µM in experiment [1] (setting [8]) and 5.39 ± 0.25 µM in experiment [3]. Also, the GI50 in experiment [2] is 22 ± 0.46 µM; in experiment [4] it was 24.2 ± 0.42 µM; in experiment [5], 14.7 ± 0.46 µM; in experiment [6] it was 12.9 ± 0.37 µM; in experiment [6] (Homo sapiens, Skin fibroblast), more than 10 µM; in experiment [7], 14.6 ± 0.35 µM.
Consider `CC1(C)S[C@@H]2[C@H](NC(=O)Cc3ccccc3)C(=O)N2[C@H]1C(=O)O` [Penicillin G, penicillin G, reference compound], for which the IC50 in experiment [3] amounted to 1.61 ± 0.08 µM.
As to `CC(C)=CCC[C@H](C)[C@H]1CC[C@H](C)c2c1cc(C)c(O[C@@H]1O[C@@H](C)[C@@H](O)[C@@H](O)[C@@H]1O)c2O` [seco-PsK], the IC50 in experiment [1] (setting [8]) came out at 3.82 ± 0.21 µM; in experiment [3], 4.2 ± 0.16 µM. Further, the GI50 in experiment [2] is 13.6 ± 0.38 µM; in experiment [4], 13.3 ± 0.27 µM; in experiment [5], 11.5 ± 0.36 µM; in experiment [6] (Homo sapiens, Skin fibroblast), 8.28 ± 0.29 µM; in experiment [7], 15.8 ± 0.18 µM.
Take `CN[C@@H]1C[C@H]2O[C@@](C)([C@@H]1OC)n1c3ccccc3c3c4c(c5c6ccccc6n2c5c31)C(=O)NC4` [Staurosporine, staurosporine, reference compound]: the GI50 was 0.06182 ± 0.00038 µM in experiment [2] (footnote ** unit); 0.04556 ± 0.00045 µM in experiment [4] (footnote ** unit); 0.1766 ± 0.00038 µM in experiment [5] (footnote ** unit); 0.0136 ± 0.00035 µM in experiment [6] (Homo sapiens, Skin fibroblast, footnote ** unit); 0.1056 ± 0.00041 µM in experiment [7] (footnote ** unit).
For the molecule `CC(=O)OC1COC(Oc2c(C)c3c4c(c2O)C(C)CCC4C(C)CC3C=C(C)C)C(O)C1OC(C)=O` (centres unmarked) [3-O-Ac-PsU], the IC50 was 7.64 ± 0.16 µM in experiment [1] (setting [8]) and 20.23 ± 0.19 µM in experiment [3]. Further, the GI50 in experiment [2] was 26.4 ± 0.31 µM; in experiment [4], 20.5 ± 0.48 µM; in experiment [5], 83.93 ± 0.39 µM; in experiment [6], 62.03 ± 0.45 µM; in experiment [6] (listed as 3-O-acetyl-PsU), more than 10 µM; in experiment [7], 44.61 ± 0.35 µM.
For the molecule `CC(=O)O[C@H]1[C@@H](O)[C@H](O)[C@H](Oc2c(C)c3c4c(c2O)[C@@H](C)CC[C@@H]4[C@@H](C)C[C@H]3C=C(C)C)O[C@H]1C` [PsQ], the IC50 in experiment [1] (setting [8]) worked out at 7.38 ± 0.16 µM; in experiment [3] it was 3.3 ± 0.2 µM. The GI50 in experiment [2] was 7.81 ± 0.35 µM; in experiment [4], 7.66 ± 0.27 µM; in experiment [5] it was 8.44 ± 0.41 µM; in experiment [6] (Homo sapiens, Skin fibroblast), 4.47 ± 0.31 µM; in experiment [7] it was 5.82 ± 0.33 µM.
Turning to `CC(C)=C[C@@H]1C[C@H](C)[C@H]2CC[C@H](C)c3c(O[C@@H]4O[C@@H](C)[C@@H](O)[C@@H](O)[C@@H]4O)c(O)c(C)c1c32` [PsG], the IC50 in experiment [1] (setting [8]) worked out at 3.14 ± 0.22 µM; in experiment [3] it was 4.48 ± 0.18 µM. Further, the GI50 in experiment [2] was found to be 8.83 ± 0.54 µM; in experiment [4], 12 ± 0.36 µM; in experiment [5], 9.42 ± 0.43 µM; in experiment [6] (Homo sapiens, Skin fibroblast), 7.62 ± 0.38 µM; in experiment [7] it was 9.22 ± 0.45 µM.
`CN[C@H](CC(C)C)C(=O)N[C@H]1C(=O)N[C@@H](CC(N)=O)C(=O)N[C@H]2C(=O)N[C@H]3C(=O)N[C@H](C(=O)N[C@H](C(=O)O)c4cc(O)cc(O)c4-c4cc3ccc4O)[C@H](O)c3ccc(c(Cl)c3)Oc3cc2cc(c3O[C@@H]2O[C@H](CO)[C@@H](O)[C@H](O)[C@H]2O[C@H]2C[C@](C)(N)[C@H](O)[C@H](C)O2)Oc2ccc(cc2Cl)[C@H]1O` [Vancomycin, vancomycin, reference compound]: the IC50 in experiment [1] (Enterococcus faecalis, ATCC10741, 24 h, read-out: IC50 ± S.E, E. faecalis, microdilution, 24 h) amounted to 4.2 µM; in experiment [1] (read-out: IC50 ± S.E, E. faecalis, microdilution, 24 h) it was 4.21 ± 0.11 µM.
For the molecule `CC(C)=C[C@@H]1C[C@H](C)[C@H]2CC[C@H](C)c3c(O)c(O[C@@H]4O[C@@H](C)[C@@H](O)[C@@H](O)[C@@H]4O)c(C)c1c32` [PsP], the IC50 in experiment [1] (setting [8]) came out at 37.35 ± 0.29 µM; in experiment [3], 14.9 ± 0.2 µM. In addition, the GI50 is 13.8 ± 0.58 µM in experiment [2]; 17.9 ± 0.45 µM in experiment [4]; 12.6 ± 0.45 µM in experiment [5]; 10.4 ± 0.42 µM in experiment [6]; more than 10 µM in experiment [6] (Homo sapiens, Skin fibroblast); 10.3 ± 0.49 µM in experiment [7].

The values are drawn from article PMC3083654, “Cytotoxic and Antimicrobial Activity of Pseudopterosins and seco-Pseudopterosins Isolated from the Octocoral Pseudopterogorgia elisabethae of San Andrés and Providencia Islands (Southwest Caribbean Sea)” (Marine Drugs, 2011).
